Source: patent publication US11530179B2, “Amorphous solid succinylated 3-(fatty acid amido)-2-hydroxy-1 -(protected hydroxy)-propane salts and methods of making the same” (Geron Corporation, priority 2019, dated 2022)

Assays:
Assay type in all cases: physicochemical
[1] = Solubility in organic solvents; settings: most organic solvents, at or below ambient temperature
[2] = Physical stability at room temperature under different relative humidity (RH); settings: for Physical stability, Observation: 20-25° C., 300 mg in uncapped scintillation vial
Procedure: The physical stability of the amorphous 3-(palmitoyl amido)-2-hydroxy-1-(dimethoxytriphenylmethyl hydroxy)-propane lithium salts were tested at room temperature under different relative humidity (RH). 300 mg of amorphous 3-(palmitoyl amido)-2-hydroxy-1-(dimethoxytriphenylmethyl hydroxy)-propane lithium salt was placed in uncapped scintillation vials at 11% RH, 33% RH and 75% RH for days. (Table 1)

[3] = Physical form at room temperature (isolation and storage)

CCCCCCCCCCCCCCCC(=O)NCC(COC(c1ccccc1)(c1ccc(OC)cc1)c1ccc(OC)cc1)OC(=O)CCC(=O)[O-].[Li+] (stereo not drawn) [succinylated 3-(palmitoyl amido)-2-hydroxy-1-(dimethoxytriphenylmethyl hydroxy)-propane lithium salt]
Solubility in organic solvents [1]: highly soluble | Physical stability, Observation ([2]; 11% RH, examined by gently shaking once every day): Remains free-flowing solids up to 14 days* | Physical stability, Observation ([2]; 33% RH, examined by gently shaking once every day): Remains free-flowing solids up to 14 days* | Physical stability, Observation ([2]; 75% RH): Turns to sticky after 30 min | Physical stability ([2]; room temperature, up to 33% relative humidity): remained solid for an extended period of time | Physical form [3]: stable solids
